# Literature values in patent US12221461B2, “Saponin adjuvant and evaluation method thereof” (OBI PHARMA, INC., priority 2018, dated 2025).
# System: antibody levels
# Details: previous study, Kensil et al., J. Immunol. 146, 431-437, 1991
row,Substance,boost of antibody levels (adjuvant effect)
1,QS-17,able to dramatically boost antibody levels
2,QS-18,able to dramatically boost antibody levels
3,QS-21,able to dramatically boost antibody levels
